Experimental findings from patent publication US12084419B2, “Cell metabolism modulating compounds and uses thereof” (CRESCENTA BIOSCIENCES, priority 2020, dated 2024) are described below.

In this experiment the target is T1, His6 tagged human recombinant FABP4 (Homo sapiens, UniProt P15090).
T1 construct: purchased Cayman Chemicals 10009549
In words: FABP4 TR-FRET assay: displacement of BODIPY FL C12 fatty acid. As to conditions: triplicates, inhibition of BODIPY FL C12 binding. The source says: Activity of compounds with FABP4 was profiled using a Terbium (Tb) based time resolved fluorescence energy transfer (TR-FRET) assay. The assay measures the compound mediated displacement of the fluorescent fatty acid BODIPY FL C12 (Thermo Fisher; catalog number D3822) from His6 tagged human recombinant FABP4 (His6-FABP4; Cayman Chemicals, catalog number 10009549) via recording the energy transfer from TB donor molecule on anti-His6-tag antibody to acceptor BODIPY moiety. Briefly, compounds were prepared at a concentration of 0.362 mM and 0.0362 mM, and BODIPY FL C12 was prepared at 4.2 μM, in DMSO. 1.2 μL of each compound or DMSO (vehicle control) and 1.2 μL of BODIPY FL C12 were added into the wells of a 384-well black polypropylene plate. His6-FABP4 and Tb anti-His6 antibody were prepared in the assay buffer (25 mM Tris/HCl, pH 7.4, 0.4 mg/ml y-globulins, 0.010% NP-40, 1 mM DTT) at a concentration of 83 nM and 49.6 nM, respectively. The protein and antibody solutions were then mixed at a ratio of 34:7 (v/v) and incubated on ice for 30 minutes. The assay was initiated by adding 41 μL of the resulting protein/antibody solution into the wells containing the compounds and BODIPY FL C12. The plate was centrifuged and incubated at room temperature for 10 min. The TR-FRET signals were recorded using an EnVision Multilabel plate reader (PerkinElmer; TB excitation 320 nm, BODIPY FL C12 emission 520 nm; TB emission 615 nm). Relative fluorescence ratio (520 nm*10,000/615 nm) were used to calculate the compound mediated inhibition of BODIPY C12 FL fatty acid binding to FABP4. […] Glucose consumption and FABP4 inhibition is shown below in Table 3 below.

T1 sequence (P15090 whole entry): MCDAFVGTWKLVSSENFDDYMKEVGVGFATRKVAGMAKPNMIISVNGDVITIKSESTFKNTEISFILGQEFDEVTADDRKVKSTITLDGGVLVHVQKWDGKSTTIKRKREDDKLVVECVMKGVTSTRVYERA

What is called inhibition is the change of the read-out against control, counted positive when it falls. As for `CCCCCCC1CCCc2c(n(Cc3cncc(C#N)c3)c3c(C(=O)O)cccc23)C1` (stereo not drawn) [5-[(5-cyanopyridin-3-yl)methyl]-7-hexyl-5H,6H,7H,8H,9H,10H-cyclohepta[b]indole-4-carboxylic acid], the inhibition at 1 µM (1 μM compound) came to 90.5%. Moreover, where the note is “10 μM compound”, the inhibition at 10 µM is 91.8%.

Take `CCCCCCC1CCCc2c(n(Cc3ccc(C#N)s3)c3c(C(=O)O)cccc23)C1` (stereo not drawn) [5-[(5-cyanothiophen-2-yl)methyl]-7-hexyl-5H,6H,7H,8H,9H,10H-cyclohepta[b]indole-4-carboxylic acid]: where the note is “1 μM compound”, the “FABP4 inhibition (%) at 1 μM Mean” value stood at 83.31% and the inhibition at 1 µM is 86.6%. Where the note is “10 μM compound”, the “FABP4 inhibition (%) at 10 μM Mean” value is 89.42% and the inhibition at 10 µM worked out at 87.3%.

With `CCCCCCC1CCCc2c(n(Cc3cccc(C(N)=O)n3)c3c(C(=O)O)cccc23)C1` (stereo not drawn) [5-[(6-carbamoylpyridin-2-yl)methyl]-7-hexyl-5H,6H,7H,8H,9H,10H-cyclohepta[b]indole-4-carboxylic acid], under “1 μM compound”, the inhibition at 1 µM came out at 94%. In addition, the inhibition at 10 µM (10 μM compound) is 95.2%.

Consider `CCCCCCC1CCCc2c(n(Cc3cccc(C#N)n3)c3c(C(=O)O)cccc23)C1` (stereo not drawn) [5-[(6-cyanopyridin-2-yl)methyl]-7-hexyl-5H,6H,7H,8H,9H,10H-cyclohepta[b]indole-4-carboxylic acid], for which the inhibition at 1 µM (1 μM compound) was 93.5%. Also, where the note is “10 μM compound”, the inhibition at 10 µM stood at 88.1%.

In the case of `CCCCCCC1CCCc2c(n(Cc3cccc(F)n3)c3c(C(=O)O)cccc23)C1` (stereo not drawn) [5-[(6-fluoropyridin-2-yl)methyl]-7-hexyl-5H,6H,7H,8H,9H,10H-cyclohepta[b]indole-4-carboxylic acid], the inhibition at 1 µM (1 μM compound) was 86.5%. Further, the inhibition at 10 µM (10 μM compound) was 91.8%.

On to `CCCCCCC1CCCc2c(n(Cc3cccc(C(=O)O)n3)c3c(C(=O)O)cccc23)C1` (stereo not drawn) [6-({4-carboxy-7-hexyl-5H,6H,7H,8H,9H,10H-cyclohepta[b]indol-5-yl}methyl)pyridine-2-carboxylic acid], for which, for the setting “1 μM compound”, the inhibition at 1 µM is 91.6%. For the same molecule, the inhibition at 10 µM (10 μM compound) stood at 96.5%.

For the molecule `CCCCC1CCCCc2c1n(Cc1cccc(C(N)=O)c1)c1c(C(=O)O)cccc21` (stereo not drawn) [6-butyl-5-[(3-carbamoylphenyl)methyl]-5H,6H,7H,8H,9H,10H-cyclohepta[b]indole-4-carboxylic acid], the inhibition at 1 µM (1 μM compound) is 91.4%. Also, under “10 μM compound”, the inhibition at 10 µM is 95.2%.

As for `CCCCC1CCCCc2c1n(Cc1cccc(C#N)c1)c1c(C(=O)O)cccc21` (stereo not drawn) [6-butyl-5-[(3-cyanophenyl)methyl]-5H,6H,7H,8H,9H,10H-cyclohepta[b]indole-4-carboxylic acid], the inhibition at 1 µM (1 μM compound) amounted to 71.3%. Also, for the setting “10 μM compound”, the inhibition at 10 µM worked out at 85.7%.

Take `CCCCC1CCCc2c(n(Cc3ccccc3C(N)=O)c3c(C(=O)O)cccc23)C1` (stereo not drawn) [7-butyl-5-[(2-carbamoylphenyl)methyl]-5H,6H,7H,8H,9H,10H-cyclohepta[b]indole-4-carboxylic acid]: under “1 μM compound”, the inhibition at 1 µM came out at 71.3%. The inhibition at 10 µM (10 μM compound) came to 94.5%.

In the case of `CCCCC1CCCc2c(n(Cc3ccccc3C#N)c3c(C(=O)O)cccc23)C1` (stereo not drawn) [7-butyl-5-[(2-cyanophenyl)methyl]-5H,6H,7H,8H,9H,10H-cyclohepta[b]indole-4-carboxylic acid], the inhibition at 1 µM (1 μM compound) stood at 91.5%. Besides, where the note is “10 μM compound”, the inhibition at 10 µM stood at 87.3%.

On to `CCCCC1CCCc2c(n(Cc3ccccc3F)c3c(C(=O)O)cccc23)C1` (stereo not drawn) [7-butyl-5-[(2-fluorophenyl)methyl]-5H,6H,7H,8H,9H,10H-cyclohepta[b]indole-4-carboxylic acid], for which the inhibition at 1 µM (1 μM compound) was determined as 92.1%. Besides, the inhibition at 10 µM (10 μM compound) amounted to 88.1%.

With `CCCCC1CCCc2c(n(Cc3ccnc(OC)c3)c3c(C(=O)O)cccc23)C1` (stereo not drawn) [7-butyl-5-[(2-methoxypyridin-4-yl)methyl]-5H,6H,7H,8H,9H,10H-cyclohepta[b]indole-4-carboxylic acid], the inhibition at 1 µM (1 μM compound) amounted to 83.4%. For the same molecule, the inhibition at 10 µM (10 μM compound) amounted to 88.2%.

As to `CCCCC1CCCc2c(n(Cc3ccccc3C)c3c(C(=O)O)cccc23)C1` (stereo not drawn) [7-butyl-5-[(2-methylphenyl)methyl]-5H,6H,7H,8H,9H,10H-cyclohepta[b]indole-4-carboxylic acid], the inhibition at 1 µM (1 μM compound) is 101%. Where the note is “10 μM compound”, the inhibition at 10 µM is 95.3%.

As to `CCCCC1CCCc2c(n(Cc3cccc(C(N)=O)c3)c3c(C(=O)O)cccc23)C1` (stereo not drawn) [7-butyl-5-[(3-carbamoylphenyl)methyl]-5H,6H,7H,8H,9H,10H-cyclohepta[b]indole-4-carboxylic acid], the inhibition at 1 µM (1 μM compound) stood at 89.4%. The inhibition at 10 µM (10 μM compound) stood at 117%.

For the molecule `CCCCC1CCCc2c(n(Cc3cccc(C(N)=O)c3)c3c(C(=O)NCCO)cccc23)C1` (stereo not drawn) [7-butyl-5-[(3-carbamoylphenyl)methyl]-N-(2-hydroxyethyl)-5H,6H,7H,8H,9H,10H-cyclohepta[b]indole-4-carboxamide], the inhibition at 1 µM (1 μM compound) turned out to be 10.2%.

For the molecule `CCCCC1CCCc2c(n(Cc3cccc(C(=O)O)c3)c3c(C(=O)O)cccc23)C1` (stereo not drawn) [7-butyl-5-[(3-carboxyphenyl)methyl]-5H,6H,7H,8H,9H,10H-cyclohepta[b]indole-4-carboxylic acid], the inhibition at 1 µM (1 μM compound) is 91.8%. The inhibition at 10 µM (10 μM compound) was found to be 100%.

In the case of `CCCCC1CCCc2c(n(Cc3cccc(Cl)c3)c3c(C(=O)O)cccc23)C1` (stereo not drawn) [7-butyl-5-[(3-chlorophenyl)methyl]-5H,6H,7H,8H,9H,10H-cyclohepta[b]indole-4-carboxylic acid], for the setting “1 μM compound”, the inhibition at 1 µM came out at 84.2%. For the same molecule, the inhibition at 10 µM (10 μM compound) is 83%.

On to `CCCCC1CCCc2c(n(Cc3cccc(C#N)c3)c3c(C(=O)O)cccc23)C1` (stereo not drawn) [7-butyl-5-[(3-cyanophenyl)methyl]-5H,6H,7H,8H,9H,10H-cyclohepta[b]indole-4-carboxylic acid], for which the inhibition at 1 µM (1 μM compound) worked out at 73.5%. Besides, where the note is “10 μM compound”, the inhibition at 10 µM is 112%.

With `CCCCC1CCCc2c(n(Cc3cccc(C#N)c3)c3c(C(=O)NCCO)cccc23)C1` (stereo not drawn) [7-butyl-5-[(3-cyanophenyl)methyl]-N-(2-hydroxyethyl)-5H,6H,7H,8H,9H,10H-cyclohepta[b]indole-4-carboxamide], the inhibition at 1 µM (1 μM compound) is 6.65%. Further, the inhibition at 10 µM (10 μM compound) amounted to 42.7%.

As for `CCCCC1CCCc2c(n(Cc3cccc(F)c3)c3c(C(=O)O)cccc23)C1` (stereo not drawn) [7-butyl-5-[(3-fluorophenyl)methyl]-5H,6H,7H,8H,9H,10H-cyclohepta[b]indole-4-carboxylic acid], the inhibition at 1 µM (1 μM compound) was found to be 97%. Further, the inhibition at 10 µM (10 μM compound) was found to be 90.6%.

As to `CCCCC1CCCc2c(n(Cc3cccc(O)c3)c3c(C(=O)O)cccc23)C1` (stereo not drawn) [7-butyl-5-[(3-hydroxyphenyl)methyl]-5H,6H,7H,8H,9H,10H-cyclohepta[b]indole-4-carboxylic acid], where the note is “1 μM compound”, the inhibition at 1 µM was determined as 98.7%. Further, the inhibition at 10 µM (10 μM compound) is 96.1%.

On to `CCCCC1CCCc2c(n(Cc3cccc(OC)c3)c3c(C(=O)O)cccc23)C1` (stereo not drawn) [7-butyl-5-[(3-methoxyphenyl)methyl]-5H,6H,7H,8H,9H,10H-cyclohepta[b]indole-4-carboxylic acid], for which the inhibition at 1 µM (1 μM compound) was 91.7%. In addition, where the note is “10 μM compound”, the inhibition at 10 µM was determined as 86.5%.

In the case of `CCCCC1CCCc2c(n(Cc3cccc(C)c3)c3c(C(=O)O)cccc23)C1` (stereo not drawn) [7-butyl-5-[(3-methylphenyl)methyl]-5H,6H,7H,8H,9H,10H-cyclohepta[b]indole-4-carboxylic acid], the inhibition at 1 µM (1 μM compound) turned out to be 94.8%. The inhibition at 10 µM (10 μM compound) came to 91%.

On to `CCCCC1CCCc2c(n(Cc3ccc(C(N)=O)cc3)c3c(C(=O)O)cccc23)C1` (stereo not drawn) [7-butyl-5-[(4-carbamoylphenyl)methyl]-5H,6H,7H,8H,9H,10H-cyclohepta[b]indole-4-carboxylic acid], for which the inhibition at 1 µM (1 μM compound) worked out at 92.6%. Moreover, the inhibition at 10 µM (10 μM compound) was determined as 95.5%.

As for `CCCCC1CCCc2c(n(Cc3ccc(C)cc3)c3c(C(=O)O)cccc23)C1` (stereo not drawn) [7-butyl-5-[(4-methylphenyl)methyl]-5H,6H,7H,8H,9H,10H-cyclohepta[b]indole-4-carboxylic acid], the inhibition at 1 µM (1 μM compound) amounted to 106%. In addition, the inhibition at 10 µM (10 μM compound) is 92.4%.

On to `CCCCC1CCCc2c(n(Cc3cccnc3)c3c(C(=O)O)cccc23)C1` (stereo not drawn) [7-butyl-5-[(pyridin-3-yl)methyl]-5H,6H,7H,8H,9H,10H-cyclohepta[b]indole-4-carboxylic acid], for which the inhibition at 1 µM (1 μM compound) worked out at 71.6%. Besides, the inhibition at 10 µM (10 μM compound) is 83.8%.

For `CCCCCCC1CCCc2c(n(Cc3ccnc(OC)c3)c3c(C(=O)O)cccc23)C1` (stereo not drawn) [7-hexyl-5-[(2-methoxypyridin-4-yl)methyl]-5H,6H,7H,8H,9H,10H-cyclohepta[b]indole-4-carboxylic acid], the inhibition at 1 µM (1 μM compound) was determined as 78.1%. Also, the inhibition at 10 µM (10 μM compound) was 82.8%.

Take `CCCCCCC1CCCc2c(n(Cc3ccccc3C)c3c(C(=O)O)cccc23)C1` (stereo not drawn) [7-hexyl-5-[(2-methylphenyl)methyl]-5H,6H,7H,8H,9H,10H-cyclohepta[b]indole-4-carboxylic acid]: the inhibition at 1 µM (1 μM compound) is 92.7%. The inhibition at 10 µM (10 μM compound) was determined as 84.2%.
